Reference: ChEMBL document CHEMBL4219040, “Modulation of Glycine-Mediated Spinal Neurotransmission for the Treatment of Chronic Pain” (J Med Chem, 2018)

Legend:
[1] = biological target: T1, P2X purinoceptor 7 (Mus musculus) (UniProt Q9Z1M0); test: Agonist activity at P2X7 receptor in C57Bl6 mouse lumbar spinal cord slices assessed as increase in glycinergic inhibitory postsynaptic currents after 20 to 26 mins by electrophysiology method relative to control; design: scale not given: the % may be the effect or the level left
T1 sequence (whole entry): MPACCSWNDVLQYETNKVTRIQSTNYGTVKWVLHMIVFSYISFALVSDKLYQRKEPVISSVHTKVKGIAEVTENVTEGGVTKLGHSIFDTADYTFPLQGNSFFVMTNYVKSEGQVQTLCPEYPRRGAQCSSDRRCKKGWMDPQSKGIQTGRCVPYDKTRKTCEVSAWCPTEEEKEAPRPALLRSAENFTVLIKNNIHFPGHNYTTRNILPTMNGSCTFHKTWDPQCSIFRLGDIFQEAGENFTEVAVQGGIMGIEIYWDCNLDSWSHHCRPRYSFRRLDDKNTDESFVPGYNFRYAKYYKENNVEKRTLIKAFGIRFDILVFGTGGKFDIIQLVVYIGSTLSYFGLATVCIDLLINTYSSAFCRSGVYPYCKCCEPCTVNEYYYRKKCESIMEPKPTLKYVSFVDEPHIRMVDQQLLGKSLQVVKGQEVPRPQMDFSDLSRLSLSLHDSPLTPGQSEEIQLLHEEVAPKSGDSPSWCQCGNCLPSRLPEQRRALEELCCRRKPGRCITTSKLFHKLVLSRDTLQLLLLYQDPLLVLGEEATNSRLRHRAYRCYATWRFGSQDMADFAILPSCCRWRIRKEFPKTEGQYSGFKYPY

[2] = biological target: T2, Sodium- and chloride-dependent glycine transporter 1 (Homo sapiens, UniProt P48067); test: Inhibition of human GlyT-1
T2 sequence (P48067 whole entry): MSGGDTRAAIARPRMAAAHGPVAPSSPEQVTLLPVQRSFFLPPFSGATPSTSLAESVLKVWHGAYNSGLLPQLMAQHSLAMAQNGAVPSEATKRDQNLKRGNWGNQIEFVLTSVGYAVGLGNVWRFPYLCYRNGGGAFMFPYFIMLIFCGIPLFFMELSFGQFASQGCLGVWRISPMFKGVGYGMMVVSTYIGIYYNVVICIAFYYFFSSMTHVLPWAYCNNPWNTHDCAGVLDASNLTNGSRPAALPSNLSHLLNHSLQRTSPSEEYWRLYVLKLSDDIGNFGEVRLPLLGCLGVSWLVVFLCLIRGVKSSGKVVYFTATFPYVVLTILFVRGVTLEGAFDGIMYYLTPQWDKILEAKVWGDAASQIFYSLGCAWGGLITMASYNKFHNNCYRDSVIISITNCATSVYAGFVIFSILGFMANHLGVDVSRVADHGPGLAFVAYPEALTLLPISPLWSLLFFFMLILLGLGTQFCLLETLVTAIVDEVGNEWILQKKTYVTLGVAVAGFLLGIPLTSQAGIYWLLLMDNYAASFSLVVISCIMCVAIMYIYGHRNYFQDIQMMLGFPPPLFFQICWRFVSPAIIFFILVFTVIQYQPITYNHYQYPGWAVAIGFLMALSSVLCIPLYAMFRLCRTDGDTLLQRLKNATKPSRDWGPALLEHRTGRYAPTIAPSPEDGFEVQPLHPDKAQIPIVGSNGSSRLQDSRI

[3] = biological target: T3, Glycine receptor alpha-3/beta (Homo sapiens, UniProt O75311+P48167); test: Positive allosteric modulation of human GlyRalpha3beta expressed in CHO cells assessed as potentiation of EC20 glycine-induced response at 5.9 uM by fluorescence based HTS assay; type: cell-based
T3 sequence (O75311 whole entry): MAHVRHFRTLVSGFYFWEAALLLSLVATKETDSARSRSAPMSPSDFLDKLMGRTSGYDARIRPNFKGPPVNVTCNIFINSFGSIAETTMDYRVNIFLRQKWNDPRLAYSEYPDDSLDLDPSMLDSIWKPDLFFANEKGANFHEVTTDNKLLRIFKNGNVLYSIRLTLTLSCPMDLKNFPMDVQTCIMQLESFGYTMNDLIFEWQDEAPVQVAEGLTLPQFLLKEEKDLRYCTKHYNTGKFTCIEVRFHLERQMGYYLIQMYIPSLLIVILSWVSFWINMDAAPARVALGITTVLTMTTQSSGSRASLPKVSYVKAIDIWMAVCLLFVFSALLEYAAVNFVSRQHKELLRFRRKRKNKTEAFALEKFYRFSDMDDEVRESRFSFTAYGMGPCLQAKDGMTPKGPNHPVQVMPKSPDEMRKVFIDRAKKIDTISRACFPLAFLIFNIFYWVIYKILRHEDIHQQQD
T3 sequence (P48167 whole entry): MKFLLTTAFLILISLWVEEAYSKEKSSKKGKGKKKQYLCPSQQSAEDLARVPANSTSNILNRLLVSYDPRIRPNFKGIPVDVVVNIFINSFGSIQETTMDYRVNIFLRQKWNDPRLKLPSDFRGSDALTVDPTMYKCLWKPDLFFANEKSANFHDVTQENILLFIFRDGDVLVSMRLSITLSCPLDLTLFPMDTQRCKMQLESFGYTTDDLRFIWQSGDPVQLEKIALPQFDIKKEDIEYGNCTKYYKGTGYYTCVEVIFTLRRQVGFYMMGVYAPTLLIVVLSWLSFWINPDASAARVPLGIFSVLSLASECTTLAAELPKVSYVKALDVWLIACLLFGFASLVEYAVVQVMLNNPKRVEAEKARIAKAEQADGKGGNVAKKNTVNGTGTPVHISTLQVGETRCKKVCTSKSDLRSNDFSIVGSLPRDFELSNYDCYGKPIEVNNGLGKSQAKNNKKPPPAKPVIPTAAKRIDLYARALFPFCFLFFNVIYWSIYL

[4] = biological target: T3, Glycine receptor alpha-3/beta; test: Positive allosteric modulation of human GlyRalpha3beta expressed in CHO cells assessed as potentiation of EC20 glycine-induced ion flux at 10 uM by HT assay; type: cell-based
[5] = biological target: T3, Glycine receptor alpha-3/beta; test: Positive allosteric modulation of human GlyRalpha3beta expressed in CHO cells assessed as potentiation of EC5 to EC10 glycine-induced response at 10 uM by manual patch clamp assay; type: cell-based
[6] = biological target: T3, Glycine receptor alpha-3/beta; test: Positive allosteric modulation of human GlyRalpha3beta expressed in CHO cells assessed as potentiation of EC20 glycine-induced ion flux by HT assay; type: cell-based
[7] = test system: Mus musculus; test: In vivo receptor occupancy at GlyT-2 in formalin-induced pain mouse model at 25 mg/kg, ip; type: functional
[8] = Unbound brain to plasma concentration ratio in mouse; type: ADME, cell-free; settings: read-out: K(p,uu,brain)
[9] = biological target: T2, Sodium- and chloride-dependent glycine transporter 1; test: Inhibition of human GlyT-1 expressed in CHO cells assessed as reduction in [3H]-glycine uptake; type: cell-based
[10] = species on record: Rattus norvegicus; test: Inhibition of GlyT in rat spinal cord lamina X neuron assessed as increase in extracellular glycine level at 10 uM relative to basal level; design: scale not given: the % may be the effect or the level left
[11] = test system: Mus musculus; test: Antiallodynic activity in ddY mouse partial sciatic nerve ligation-injury model assessed as inhibition of mechanical allodynia by measuring paw withdrawal threshold in response to probing with von Frey hairs administered via iv route; type: functional
[12] = Toxicity in ip dosed formalin-induced pain mouse model; type: organism-based; settings: in vivo
[13] = test system: Mus musculus; test: In vivo receptor occupancy at GlyT-2 in formalin-induced pain mouse model at 0.06 mg/kg, ip; type: functional
[14] = test system: Mus musculus; test: In vivo receptor occupancy at GlyT-2 in formalin-induced pain mouse model at 20 mg/kg, ip; type: functional
[15] = test system: Mus musculus; test: Analgesic activity in formalin-induced pain mouse model assessed as reduction in phase 2 paw licking behavior at 25 mg/kg, ip; type: functional; design: scale not given: the % may be the effect or the level left
[16] = test system: Mus musculus; test: Analgesic activity in formalin-induced pain mouse model assessed as reduction in phase 2 paw licking behavior at 100 mg/kg, ip; type: functional; design: scale not given: the % may be the effect or the level left
[17] = test system: Mus musculus; test: In vivo receptor occupancy at GlyT-2 in formalin-induced pain mouse model at 100 mg/kg, ip; type: functional
[18] = species on record: Rattus norvegicus; test: Antiallodynic activity in Sprague-Dawley rat model of spared nerve injury-induced allodynia assessed as inhibition of electrically evoked inhibitory post-synaptic current amplitude in spinal cord by electrophysiology method; type: functional
[19] = biological target: 5-hydroxytryptamine receptor 2A (Homo sapiens, UniProt P28223); test: Antagonist activity at human 5-HT2A; type: functional
Sequence of 5-hydroxytryptamine receptor 2A (P28223 whole entry): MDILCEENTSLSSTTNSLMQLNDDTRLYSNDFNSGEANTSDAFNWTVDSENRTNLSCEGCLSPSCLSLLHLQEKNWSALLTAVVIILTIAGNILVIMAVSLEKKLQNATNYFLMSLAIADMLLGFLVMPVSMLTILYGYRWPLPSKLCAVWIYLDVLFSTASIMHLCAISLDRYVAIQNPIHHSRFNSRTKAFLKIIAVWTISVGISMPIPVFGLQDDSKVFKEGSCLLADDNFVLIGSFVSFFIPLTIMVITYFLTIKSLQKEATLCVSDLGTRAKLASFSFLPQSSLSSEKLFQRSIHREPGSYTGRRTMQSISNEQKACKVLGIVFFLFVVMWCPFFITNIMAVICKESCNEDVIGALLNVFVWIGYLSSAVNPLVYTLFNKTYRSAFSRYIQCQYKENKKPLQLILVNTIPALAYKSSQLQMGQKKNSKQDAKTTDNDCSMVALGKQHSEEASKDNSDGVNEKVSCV

[20] = test system: Rattus norvegicus; test: Analgesic activity in sc dosed formalin-induced pain rat model by formalin test; type: functional
[21] = test system: Rattus norvegicus; test: Antiallodynic activity in po dosed rat spinal nerve ligation model assessed as reduction in mechanical allodynia; type: functional
[22] = biological target: T4, Sodium- and chloride-dependent glycine transporter 2 (Homo sapiens, UniProt Q9Y345); test: Inhibition of human GlyT-2 expressed in HEK293 cells assessed as reduction in [3H]-glycine uptake preincubated for 30 mins followed by 3H]-glycine addition measured after 30 mins by liquid scintillation counting method; type: cell-based
T4 sequence (Q9Y345 whole entry): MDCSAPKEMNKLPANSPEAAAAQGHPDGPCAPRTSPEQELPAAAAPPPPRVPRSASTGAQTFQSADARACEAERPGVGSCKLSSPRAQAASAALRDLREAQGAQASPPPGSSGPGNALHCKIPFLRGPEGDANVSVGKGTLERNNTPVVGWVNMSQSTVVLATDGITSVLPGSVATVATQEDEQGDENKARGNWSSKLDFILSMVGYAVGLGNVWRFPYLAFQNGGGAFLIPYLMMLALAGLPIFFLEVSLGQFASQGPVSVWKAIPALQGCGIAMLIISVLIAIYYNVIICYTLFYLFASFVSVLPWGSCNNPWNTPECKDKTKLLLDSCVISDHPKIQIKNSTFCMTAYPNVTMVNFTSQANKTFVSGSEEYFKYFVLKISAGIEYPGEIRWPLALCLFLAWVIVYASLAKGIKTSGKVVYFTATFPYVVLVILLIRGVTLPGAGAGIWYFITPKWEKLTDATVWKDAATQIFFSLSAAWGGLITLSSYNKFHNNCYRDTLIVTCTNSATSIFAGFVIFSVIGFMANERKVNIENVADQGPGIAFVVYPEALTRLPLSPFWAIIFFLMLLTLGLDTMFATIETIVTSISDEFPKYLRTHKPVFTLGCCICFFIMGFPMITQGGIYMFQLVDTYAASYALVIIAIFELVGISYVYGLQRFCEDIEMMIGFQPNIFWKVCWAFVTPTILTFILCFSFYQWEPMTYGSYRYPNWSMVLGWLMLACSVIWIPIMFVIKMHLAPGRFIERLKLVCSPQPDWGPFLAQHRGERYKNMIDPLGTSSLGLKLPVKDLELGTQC

[23] = biological target: T2, Sodium- and chloride-dependent glycine transporter 1; test: Inhibition of human GlyT-1 expressed in HEK293 cells assessed as reduction in [3H]-glycine uptake preincubated for 30 mins followed by 3H]-glycine addition measured after 30 mins by liquid scintillation counting method; type: cell-based
[24] = species on record: Homo sapiens; test: Selectivity ratio of IC50 for human GlyT-1 expressed in HEK293 cells to IC50 for human GlyT-2 expressed in HEK293 cells; type: cell-based
[25] = species on record: Rattus norvegicus; test: Antiallodynic activity in spinal cord injury Sprague-Dawley rat model assessed as inhibition of non-voiding contraction amplitude at 10 ug, it relative to control; type: functional
[26] = species on record: Rattus norvegicus; test: Antiallodynic activity in spinal cord injury Sprague-Dawley rat model assessed as inhibition of non-voiding contraction frequency at 10 ug, it relative to control; type: functional
[27] = species on record: Rattus norvegicus; test: Antiallodynic activity in spinal cord injury Sprague-Dawley rat model assessed as inhibition of non-voiding contraction amplitude at 30 ug, it relative to control; type: functional
[28] = species on record: Rattus norvegicus; test: Antiallodynic activity in spinal cord injury Sprague-Dawley rat model assessed as inhibition of non-voiding contraction frequency at 30 ug, it relative to control; type: functional
[29] = test system: Mus musculus; test: Analgesic activity in CFA-induced mechanical hyperalgesia C57BL/6J mouse model assessed as reduction in mechanical paw withdrawal threshold administered sc measured after 2 hrs; type: functional, organism-based
[30] = test system: Mus musculus; test: In vivo inhibition of GlyT in CFA-induced mechanical hyperalgesia C57BL/6J mouse model assessed as increase in extracellular glycine level in CSF at 200 mg/kg, sc relative to basal level; type: functional
[31] = biological target: T4, Sodium- and chloride-dependent glycine transporter 2; test: Inhibition of GlyT-2 (unknown origin)

For `Nc1ncnc2c1ncn2[C@@H]1O[C@H](COP(=O)(O)OP(=O)(O)OP(=O)(O)O)[C@@H](OC(=O)c2ccc(C(=O)c3ccccc3)cc2)[C@H]1O`, the Activity [1] was 135%.
Molecule `COc1ccc2c(c1)CC[C@H](CN(C)CC(=O)O)[C@@H]2c1ccccc1` [ORG-25935] has an IC50 [2] of 0.1 µM.
`O=[N+]([O-])c1cccc(S(=O)(=O)NCCOc2cccc3cccnc23)c1` showed an Activity [3] of 23%, an Activity [4] of 98% and an Activity [5] of 136%.
For `O=S(=O)(NCCOc1cccc2cccnc12)c1ccccc1`, the Activity [3] was 65%, the Activity [4] was 182% and the EC50 [6] was 3.98 µM. For the same molecule, the Activity [5] was 2710%.
Molecule `COc1cc(C(=O)NCC2(N(C)C)CCCC2)cc(OC)c1OCc1ccccc1` has an Occ [7] of 36%, a Kp uu [8] of 0.5 and an IC50 [9] of over 100 µM. For the same molecule, the Activity [10] was 337%, the ED50 [11] was 11 ng and the MTD [12] was 2 mg/kg. It also gave an Occ [13] of 6%, an Occ [14] of 82% and an Activity [15] of 33%. For the same molecule, the Activity [16] was 80% and the Occ [17] was 60%.
In the case of `NS(=O)(=O)c1cc2c(cc1Cl)NC(C1CC3C=CC1C3)NS2(=O)=O` (stereo not drawn) [CYCLOTHIAZIDE], the “inhibition (INH)” value [18] is reported as 37.9%.
Molecule `CCCCOc1c(OC)cc(C(=O)NCC2(N(C)C)CCOCC2)cc1OC` has an IC50 [19] of 1.3 µM, an ED50 [20] of 20 mg/kg and an ED50 [21] of 80 mg/kg.
For `O=C(O)c1ccc(C[C@H]2Sc3c(F)cccc3N(Cc3ccccc3C(F)(F)F)C2=O)cc1`, the Activity [3] was 52%, the Activity [4] was 59% and the EC50 [6] was 0.661 µM. The Activity [5] was 396%.
Molecule `CN1C(=O)[C@@H]2CN(S(=O)(=O)c3ccc4c(c3)OCO4)C[C@@H]2c2cnccc21` has an Activity [3] of 94%, an Activity [4] of 95% and an Activity [5] of 1350%.
Molecule `NCC1(CC(=O)O)CCCCC1` [GABAPENTIN] has an ED50 [11] of 8200 ng.
`N[C@@H](COC(c1cccc(F)c1)c1ccccc1OCc1ccccc1)C(=O)O` (stereo partly drawn) gave an IC50 [22] of 0.1 µM, an IC50 [23] of 4 µM and a Ratio IC50 [24] of 40. For the same molecule, the Kp uu [8] was 0.036, the “inhibition (INH)” value [25] was 26% and the “inhibition (INH)” value [26] was 65%. For the same molecule, the “inhibition (INH)” value [27] was 37% and the “inhibition (INH)” value [28] was 76%.
Molecule `O=C(O)c1ccc(C[C@@H]2Sc3ccccc3N(Cc3ccccc3C(F)(F)F)C2=O)cc1F` has an Activity [3] of 161%, an Activity [4] of 44% and an Activity [5] of 259%.
In the case of `CNCC(=O)O` [SARCOSINE], the IC50 [2] is reported as 91 µM.
Molecule `C#Cc1cc(C(=O)OC)cc(-c2ncco2)c1` has an Activity [3] of 52%, an Activity [4] of 49% and an EC50 [6] of 10.2 µM. It also gave an Activity [5] of 255%.
With `CCNCC(=O)O` the EC50 [29] was 98 mg/kg and the inhibition in vivo at 200 mg/kg [30] was 25%.
Molecule `CCCCC/C=C\C/C=C\C/C=C\C/C=C\CCCC(=O)NCC(=O)O` [ARACHIDONOYL GLYCINE] has an IC50 [31] of 3 µM.
In the case of `CC(C)(C)c1cc(C(C)(C)C)c(O)c(C(=O)O)c1O`, the Activity [3] is reported as 67%, the Activity [4] is reported as 182% and the EC50 [6] is reported as 0.0135 µM. The Activity [5] was 2060%.
With `CN1c2ncccc2N(Cc2ccccc2C(F)(F)F)C(=O)[C@H]1Cc1ccc(C(N)=O)cc1` the Activity [3] was 28%, the Activity [4] was 64% and the Activity [5] was 303%.
